Assay results published in patent US20040072824A1, “Methods and compositions for the treatment of cancer” (priority 2001, published 2004).
Read-outs that look alike come from different tables or passages of the source.

Legend:
[1] = tested on: U937 cells; assay: Curative effects on palpable tumors, U937 cells in scid/scid mice; type: in vivo; conditions: for tumor growth: daily administration once tumors palpable (4 mm^3)
Description: In this series of experiments, effects of various compounds of the present invention on tumor development were tested using two protocols. The first protocol is directed to the testing of curative effects of these compounds in different cell lines. In this protocol, cancerous cells are inoculated to the animals, and the inoculated animals were left without any further treatment until the development of tumors. As soon as the tumors became palable (4 mm^3), the compounds of this invention were administered daily to the animals. Two different cell lines, i.e., U937 and MDA-MB-231 (breast cancer line), were used for this protocol to inoculate scid/scid mice.

[2] = tested on: U937 cells; assay: Antineoplastic activity, U937 cells injected in scid/scid mice, treatment from day 1; type: in vivo; conditions: 100 mg/kg; six mice
Description: Ten million U937 cells were subcutaneously injected into scid/scid mice. One injection was carried out per each of the 6 mice tested per set. The excipient or the compounds tested were administered intraperitoneally on day 1, i.e., the day of U937 cell line inoculation, of the experiment. The excipients or compounds were administered once daily. The tumor sizes were measured on day 5, day 8, day 12, day 14 and day 19 after the injection.

[3] = tested on: blastic cells from AML patients; assay: Inhibition of viability of fresh leukemic cells (trypan blue exclusion); type: cell-based, human; conditions: Homo sapiens, day 3; for cytotoxicity at 10 µM: 10^-5 M; for cytotoxicity at 1 µM: 10^-6 M
Description: Samples for AML 1 through 5, AML 1 being the least and AML 5 being the most differentiated, were obtained. […] Cells were incubated with or without […] anti-histamine derivatives. Polaramine was included as a negative control. Cell counts were assessed by trypan blue exclusion test at day 3 after the incubation. Morphological analysis was performed using Wright-Giemsa staining on cytocentrifuge preparations. The results were expressed as % inhibition of growth as compared to negative control.

[4] = tested on: K562, U937, MDA-DB231, BT20 and MCF7 cell lines; assay: Cytotoxic effects in multi-well plate, 6 days, ATP level (CellTiter-Glo); conditions: 2x10^-9 M to 2x10^-4 M
Description: In order to test the cytotoxic effects of various compounds, a test was developed in a multi-well plate. Two leukemic cell lines, namely K562 and U937, and three breast cancer cell lines, namely MDA-DB231, BT20 and MCF7 were used for this test.
The cells were seeded at low density and were left for 24 hours to recover and reach a new logarithmic phase of growth. Various concentrations of the compounds being tested, ranging from 2×10^−9 M to 2×10^−4 M, were added in triplicate. The mixture was incubated for 6 days, during which approximately 4 doublings of the cell population occurred, to allow the cells to reach subconfluence.
The viability of the cultured cells after the treatment by the compounds was determined by quantifying the level of ATP since the level of ATP is directly proportional to the number of viable cells present in the culture. The ATP level was quantified by using CellTiter-Glo™ (Promega) luminescent test for cell viability.

[5] = tested on: U937; type: in vivo; conditions: treatment from day 1, cells inoculated after more than 24 hours, daily administration
Description: The second protocol was designed to test the preventive effects of the compounds of this invention on tumorigenesis. In this protocol, the animals have been treated with various compounds of the present invention on day 1. After more than 24 hours, tumoral cells were inoculated. The administration of the compounds of this invention was maintained daily. The cell line used for this test was U937.

[6] = 72 h, MEAN over AML patients, read-out: In Vitro Percent Inhibition of Viability, MEAN
[7] = 72 h, patient ID 3, FAB AML2, read-out: In Vitro Percent Inhibition of Viability
[8] = 72 h, patient ID 4, FAB AML2, read-out: In Vitro Percent Inhibition of Viability
[9] = 72 h, patient ID 5, FAB AML2, read-out: In Vitro Percent Inhibition of Viability
[10] = 72 h, patient ID 10, FAB AML4, read-out: In Vitro Percent Inhibition of Viability
[11] = 72 h, patient ID 11, FAB AML5, read-out: In Vitro Percent Inhibition of Viability
[12] = 72 h, patient ID 12, FAB AML5, read-out: In Vitro Percent Inhibition of Viability
[13] = 72 h, patient ID 13, FAB AML5, read-out: In Vitro Percent Inhibition of Viability
[14] = 72 h, patient ID 14, FAB AML5, read-out: In Vitro Percent Inhibition of Viability
[15] = 72 h, patient ID 15, FAB AML5, read-out: In Vitro Percent Inhibition of Viability
[16] = AML1, 72 h, patient ID 1, FAB AML1, read-out: In Vitro Percent Inhibition of Viability
[17] = AML1, 72 h, patient ID 2, FAB AML1, read-out: In Vitro Percent Inhibition of Viability
[18] = AML3, 72 h, patient ID 6, FAB AML3, read-out: In Vitro Percent Inhibition of Viability
[19] = AML3, 72 h, patient ID 7, FAB AML3, read-out: In Vitro Percent Inhibition of Viability
[20] = AML3, 72 h, patient ID 8, FAB AML3, read-out: In Vitro Percent Inhibition of Viability
[21] = AML3, 72 h, patient ID 9, FAB AML3, read-out: In Vitro Percent Inhibition of Viability

For `Nc1ccn([C@@H]2O[C@H](CO)[C@@H](O)[C@@H]2O)c(=O)n1` [ARA-C, cytarabine], the tumor development ([1]; positive control, treated once tumors palpable) was “no tumor development” and the “mice that developed a tumor” value [2] was “none of the six”.

For `CN(C)CCCN1c2ccccc2Sc2ccc(Cl)cc21` [S59, chlorpromazine], the tumor growth [1] was “delay in the tumor growth”, the cytotoxicity at 10 µM [3, 6] was 37% and the cytotoxicity at 1 µM [3, 6] was 15%. The cytotoxicity at 10 µM [3, 7] was 48%, the cytotoxicity at 1 µM [3, 7] was 7% and the cytotoxicity at 10 µM [3, 8] was 22%. For the same molecule, the cytotoxicity at 1 µM [3, 8] was 9%, the cytotoxicity at 10 µM [3, 9] was 37% and the cytotoxicity at 1 µM [3, 9] was 0%. It also gave a cytotoxicity at 10 µM [3, 10] of 51%, a cytotoxicity at 1 µM [3, 10] of 33% and a cytotoxicity at 10 µM [3, 11] of 25%. For the same molecule, the cytotoxicity at 1 µM [3, 11] was 32%, the cytotoxicity at 10 µM [3, 12] was 51% and the cytotoxicity at 10 µM [3, 13] was 31%. The cytotoxicity at 1 µM [3, 13] was 13%, the cytotoxicity at 10 µM [3, 14] was 40% and the cytotoxicity at 1 µM [3, 14] was 38%. For the same molecule, the cytotoxicity at 10 µM [3, 15] was 20%, the cytotoxicity at 1 µM [3, 15] was 17% and the cytotoxicity at 10 µM [3, 16] was 8%. It also gave a cytotoxicity at 1 µM [3, 16] of 8%, a cytotoxicity at 10 µM [3, 17] of 35% and a cytotoxicity at 1 µM [3, 17] of 5%. It also gave a cytotoxicity at 10 µM [3, 18] of 24%, a cytotoxicity at 1 µM [3, 18] of 13% and a cytotoxicity at 10 µM [3, 19] of 53%. For the same molecule, the cytotoxicity at 1 µM [3, 19] was 3%, the cytotoxicity at 10 µM [3, 20] was 44% and the cytotoxicity at 1 µM [3, 20] was 14%. The cytotoxicity at 10 µM [3, 21] was 71%, the cytotoxicity at 1 µM [3, 21] was 11% and the cytotoxic effect group [4] was “I”. The “tumor growth compared to the negative control” value [5] was “decrease in tumor growth”.

In the case of `CSc1ccc2c(c1)N(CCC1CCCCN1C)c1ccccc1S2` (stereo not shown) [S60, thioridazine], the tumor growth [1] was “delay in the tumor growth”, the cytotoxicity at 10 µM [3, 6] was 53% and the cytotoxicity at 1 µM [3, 6] was 14%. The cytotoxicity at 10 µM [3, 7] was 91%, the cytotoxicity at 1 µM [3, 7] was 12% and the cytotoxicity at 10 µM [3, 8] was 42%. It also gave a cytotoxicity at 1 µM [3, 8] of 19%, a cytotoxicity at 10 µM [3, 9] of 51% and a cytotoxicity at 1 µM [3, 9] of 35%. The cytotoxicity at 10 µM [3, 10] was 48%, the cytotoxicity at 1 µM [3, 10] was 6% and the cytotoxicity at 10 µM [3, 11] was 43%. It also gave a cytotoxicity at 1 µM [3, 11] of 39%, a cytotoxicity at 10 µM [3, 12] of 88% and a cytotoxicity at 10 µM [3, 13] of 62%. For the same molecule, the cytotoxicity at 1 µM [3, 13] was 15%, the cytotoxicity at 10 µM [3, 14] was 15% and the cytotoxicity at 1 µM [3, 14] was 25%. For the same molecule, the cytotoxicity at 10 µM [3, 15] was 27%, the cytotoxicity at 1 µM [3, 15] was 0% and the cytotoxicity at 10 µM [3, 16] was 42%. The cytotoxicity at 1 µM [3, 16] was 8%, the cytotoxicity at 10 µM [3, 17] was 13% and the cytotoxicity at 1 µM [3, 17] was 8%. The cytotoxicity at 10 µM [3, 18] was 89%, the cytotoxicity at 1 µM [3, 18] was 13% and the cytotoxicity at 10 µM [3, 19] was 95%. For the same molecule, the cytotoxicity at 1 µM [3, 19] was 12%, the cytotoxicity at 10 µM [3, 20] was 56% and the cytotoxicity at 1 µM [3, 20] was 0%. The cytotoxicity at 10 µM [3, 21] was 38%, the cytotoxicity at 1 µM [3, 21] was 0% and the cytotoxic effect group [4] was “I”. The “tumor growth compared to the negative control” value [5] was “decrease in tumor growth”.
